The results in this text go back to patent publication US11040981B2, “Pyrrolotriazine compounds and methods of inhibiting TAM kinases” (Syros Pharmaceuticals, Inc., priority 2017, dated 2021).

Usually IC50 stands for the concentration that gives 50% inhibition.

One assay concerns the target T1, FLT3 (Homo sapiens, UniProt P36888).
T1 sequence (P36888 27-993): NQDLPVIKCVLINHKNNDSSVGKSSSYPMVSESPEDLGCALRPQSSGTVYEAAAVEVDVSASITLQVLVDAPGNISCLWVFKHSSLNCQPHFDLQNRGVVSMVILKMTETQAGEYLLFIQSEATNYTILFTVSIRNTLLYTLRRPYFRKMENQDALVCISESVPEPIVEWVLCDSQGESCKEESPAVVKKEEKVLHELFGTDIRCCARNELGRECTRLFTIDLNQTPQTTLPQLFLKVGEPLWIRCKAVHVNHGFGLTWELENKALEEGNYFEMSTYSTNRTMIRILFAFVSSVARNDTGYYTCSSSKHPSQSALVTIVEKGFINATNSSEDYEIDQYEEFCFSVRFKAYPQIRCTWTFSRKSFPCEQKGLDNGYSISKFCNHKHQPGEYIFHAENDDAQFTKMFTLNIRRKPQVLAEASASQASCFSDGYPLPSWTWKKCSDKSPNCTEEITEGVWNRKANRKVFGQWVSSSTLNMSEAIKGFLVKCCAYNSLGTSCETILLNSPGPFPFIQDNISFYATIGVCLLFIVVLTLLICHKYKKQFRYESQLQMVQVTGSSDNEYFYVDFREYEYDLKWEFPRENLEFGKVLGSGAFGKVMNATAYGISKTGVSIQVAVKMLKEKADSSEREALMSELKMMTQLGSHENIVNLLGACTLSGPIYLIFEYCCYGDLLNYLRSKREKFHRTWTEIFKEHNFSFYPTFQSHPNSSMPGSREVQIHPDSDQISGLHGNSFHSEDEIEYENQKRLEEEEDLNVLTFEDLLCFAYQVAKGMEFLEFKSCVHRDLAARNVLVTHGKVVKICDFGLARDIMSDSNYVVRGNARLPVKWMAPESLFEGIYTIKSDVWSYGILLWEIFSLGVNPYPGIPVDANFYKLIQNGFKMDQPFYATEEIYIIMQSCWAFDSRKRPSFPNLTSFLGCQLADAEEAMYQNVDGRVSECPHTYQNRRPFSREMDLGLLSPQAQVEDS
The assay is described as follows: TR-FRET kinase activity assay, FLT3. Format: biochemical. The settings on record: ATP at Km, 60 minutes. Put shortly: (§1)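 Enzyme + labelled peptide + cpd premixed; ATP at per-enzyme Km starts rxn. 60 min RT, HEPES pH 7.5/MgCl2/EGTA/Brij 35/DTT buffer. Stop 12.5 mM EDTA, Eu phospho-Ab 30 min dark, TR-FRET read → IC50.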
Background: Time-resolved FRET reads energy transfer from a long-lived donor to a nearby acceptor.

For the next assay, the target named is T2, AXL (Homo sapiens, UniProt P30530).
T2 sequence (P30530 26-894): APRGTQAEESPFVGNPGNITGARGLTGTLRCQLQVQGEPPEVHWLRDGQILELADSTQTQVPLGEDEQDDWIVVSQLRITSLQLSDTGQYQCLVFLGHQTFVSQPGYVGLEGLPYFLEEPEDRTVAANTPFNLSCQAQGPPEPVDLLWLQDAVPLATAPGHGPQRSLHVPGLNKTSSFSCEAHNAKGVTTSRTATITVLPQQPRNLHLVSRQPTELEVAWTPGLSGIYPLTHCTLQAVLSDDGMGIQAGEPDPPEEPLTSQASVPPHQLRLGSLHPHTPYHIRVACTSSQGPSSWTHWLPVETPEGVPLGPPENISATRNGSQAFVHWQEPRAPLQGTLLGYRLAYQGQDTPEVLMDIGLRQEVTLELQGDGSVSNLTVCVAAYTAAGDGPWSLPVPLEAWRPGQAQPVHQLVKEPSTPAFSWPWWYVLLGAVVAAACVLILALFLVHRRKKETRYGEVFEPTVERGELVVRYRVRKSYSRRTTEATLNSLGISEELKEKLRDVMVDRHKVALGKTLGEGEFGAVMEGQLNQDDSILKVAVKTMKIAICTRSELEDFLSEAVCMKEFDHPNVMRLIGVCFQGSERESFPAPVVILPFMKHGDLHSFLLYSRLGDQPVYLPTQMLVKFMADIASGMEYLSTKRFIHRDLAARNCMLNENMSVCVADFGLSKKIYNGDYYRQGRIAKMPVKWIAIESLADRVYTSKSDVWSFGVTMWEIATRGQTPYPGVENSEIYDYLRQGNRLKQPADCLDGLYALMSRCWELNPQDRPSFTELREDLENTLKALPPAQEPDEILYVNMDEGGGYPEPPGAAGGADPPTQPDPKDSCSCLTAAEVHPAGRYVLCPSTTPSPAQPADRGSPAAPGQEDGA
Kind of assay: TR-FRET kinase activity assay, AXL. Format: biochemical. The following applies: ATP at Km, 60 minutes. Put shortly:
as §1

The structures appear in SMILES notation.

Regarding `COC[C@H](C)Nc1ncc2c(-c3cncc(C(=O)N4CCN(C)CC4)c3)cc([C@H]3CC[C@H](O)CC3)n2n1` [Compound 234], the concentration for half-maximal inhibition (IC50) at FLT3 lay within 1 to 10 µM; against AXL it was 0.1 to 1 µM.
Taken in the same sequence, the figures for `COC[C@H](C)Nc1ncc2c(-c3ccc(N4CCOCC4)nc3)cc([C@H]3CC[C@H](O)CC3)n2n1` [Compound 254] were 0.1 to 1 µM and 0.1 to 1 µM.
Taken in the same sequence, the figures for `COC[C@H](C)Nc1ncc2c(-c3cnn(CC(C)(C)O)c3)cc([C@H]3CC[C@H](O)CC3)n2n1` [Compound 264] were 1 to 10 µM and at most 0.1 µM.
On the same counts, the results for `COC[C@H](C)Nc1ncc2c(-c3cnn(CC(=O)N4CCN(C)CC4)c3)cc([C@H]3CC[C@H](O)CC3)n2n1` [Compound 240] are 0.1 to 1 µM and 0.1 to 1 µM.
As for `COC[C@H](C)Nc1ncc2c(-c3cccc(CN4CCN(C)CC4)c3)cc([C@H]3CC[C@H](O)CC3)n2n1` [Compound 218], the IC50 against FLT3 and at AXL was 0.1 to 1 µM each time.
For the compound `COC[C@H](C)Nc1ncc2c(-c3cnn(C(C)(C)C)c3)cc([C@H]3CC[C@H](O)CC3)n2n1` [Compound 206], the IC50 at FLT3 is 1 to 10 µM; at AXL, 0.1 to 1 µM.
Regarding `COC[C@H](C)Nc1ncc2c(-c3cnn(Cc4cccnc4)c3)cc([C@H]3CC[C@H](O)CC3)n2n1` [Compound 220], the half-maximal inhibitory concentration (IC50) on FLT3 was 0.1 to 1 µM; against AXL, at most 0.1 µM.
Regarding `COC[C@H](C)Nc1ncc2c(-c3ccc(CN4CCOCC4)nc3)cc([C@H]3CC[C@H](O)CC3)n2n1` [Compound 230], the concentration for half-maximal inhibition (IC50) against FLT3 and against AXL was 0.1 to 1 µM throughout.
For the compound `CNC(=O)c1ccc(-c2cc([C@H]3CC[C@H](O)CC3)n3nc(N[C@@H](C)CC(F)(F)F)ncc23)cn1` [Compound 263], the IC50 against FLT3 and on AXL was at most 0.1 µM throughout.
In the case of `CC(CCOC(F)F)Nc1ncc2c(-c3ccc(CN4CCOCC4)cc3)cc(C3CCC(O)CC3)n2n1` (centres unmarked) [Compound 255], the IC50 against FLT3 and against AXL was at most 0.1 µM throughout.
Regarding `CCCCC[C@H](C)Nc1ncc2c(-c3ccc(CN4CCN(C)CC4)cc3)cc([C@H]3CC[C@@H](O)CC3)n2n1` [Compound 105], the IC50 at FLT3 and at AXL was 0.1 to 1 µM throughout.
In the case of `COC[C@H](C)Nc1ncc2c(-c3cncc(C)c3)cc([C@H]3CC[C@H](O)CC3)n2n1` [Compound 231], the IC50 on FLT3 was in the range of 1 to 10 µM; against AXL it was 0.1 to 1 µM.
On the same counts, the results for `COC[C@H](C)Nc1ncc2c(-c3ccc(C(=O)N4CCN(C)CC4)nc3)cc([C@H]3CC[C@H](O)CC3)n2n1` [Compound 226] are 0.1 to 1 µM and 0.1 to 1 µM.
For the compound `COC[C@H](C)Nc1ncc2c(-c3ccc4c(c3)NC(=O)C4)cc([C@H]3CC[C@H](O)CC3)n2n1` [Compound 249], the IC50 is 0.1 to 1 µM at FLT3 and at most 0.1 µM at AXL.
On the same counts, the results for `COCC(C)Nc1ncc2c(-c3ccc(-c4nnc(C)o4)cc3)cc(C3CCC(O)CC3)n2n1` (centres unmarked) [Compound 198] are 0.1 to 1 µM and 0.1 to 1 µM.
On the same counts, the results for `COCC(C)Nc1ncc2c(-c3cccc(CN4CCC(F)C4)c3)cc(C3CCC(O)CC3)n2n1` (centres unmarked) [Compound 225] are 0.1 to 1 µM and at most 0.1 µM.
Consider `CCCCC[C@H](C)Nc1ncc2c(NC3CCN(C)CC3)cc([C@H]3CC[C@H](O)CC3)n2n1` [Compound 107], for which the concentration for half-maximal inhibition (IC50) is 0.1 to 1 µM on FLT3 and at most 0.1 µM on AXL.
On to `COC[C@H](C)Nc1ncc2c(-c3cnn(C(F)F)c3)cc([C@H]3CC[C@H](O)CC3)n2n1` [Compound 207], for which the results for the IC50 on FLT3 and against AXL were 0.1 to 1 µM and at most 0.1 µM, respectively.
On the same counts, the results for `COCCn1cc(-c2cc([C@H]3CC[C@H](O)CC3)n3nc(N[C@@H](C)COC)ncc23)cn1` [Compound 209] are 0.1 to 1 µM and 0.1 to 1 µM.
On the same counts, the results for `CC(Nc1ncc2c(-c3ccc(CN4CCOCC4)cc3)cc(C3CCC(O)CC3)n2n1)C(F)(F)F` (centres unmarked) [Compound 202] are 0.1 to 1 µM and 0.1 to 1 µM.
Taken in the same sequence, the figures for `COC[C@H](C)Nc1ncc2c(-c3cc(C)ccn3)cc([C@H]3CC[C@H](O)CC3)n2n1` [Compound 257] were 1 to 10 µM and 1 to 10 µM.
As for `COC[C@H](C)Nc1ncc2c(-c3cnn([C@@H]4CCOC4)c3)cc([C@H]3CC[C@H](O)CC3)n2n1` [Compound 242], the half-maximal inhibitory concentration (IC50) was 0.1 to 1 µM at FLT3 and at most 0.1 µM at AXL.
